This is an account of results in patent US20240366598A1, “GLUCOSE-DEPENDENT INSULINOTROPIC POLYPEPTIDE RECEPTOR ANTAGONISTS AND USES THEREOF” (Pfizer Inc., priority 2023, published 2024).

Counter-ions that a name gives are not always drawn.

The target of this experiment is T1, human Glucose-dependent Insulinotropic Polypeptide Receptor (hGIPR) (Homo sapiens, UniProt P48546).
T1 sequence (P48546 22-466): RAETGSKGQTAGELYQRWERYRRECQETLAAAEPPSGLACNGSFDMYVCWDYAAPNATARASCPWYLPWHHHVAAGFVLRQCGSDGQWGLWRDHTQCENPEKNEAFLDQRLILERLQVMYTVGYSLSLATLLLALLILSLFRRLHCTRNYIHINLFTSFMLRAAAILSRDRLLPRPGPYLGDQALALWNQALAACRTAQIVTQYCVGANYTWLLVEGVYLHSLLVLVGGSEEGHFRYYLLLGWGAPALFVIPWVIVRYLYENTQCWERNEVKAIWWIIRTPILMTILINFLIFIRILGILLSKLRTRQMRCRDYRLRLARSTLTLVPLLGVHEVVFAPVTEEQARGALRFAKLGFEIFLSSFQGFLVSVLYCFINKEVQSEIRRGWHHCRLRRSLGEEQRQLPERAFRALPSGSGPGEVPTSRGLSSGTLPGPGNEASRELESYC
Briefly: Functional in vitro GIPR antagonist potency assay (cAMP HTRF, CHO-K1 cells stably expressing hGIPR, hGIP stimulation at about EC80). The experiment is classed as cell-based. To be noted: geometric mean, hGIP at estimated EC80, examples marked ^2: overall geometric mean of multiple forms (including salts) tested. How it is done: Example AA. Functional In Vitro GIPR Antagonist Potency Assay
The functional in vitro antagonist potency for test compounds was determined by monitoring intracellular cyclic adenosine monophosphate (cAMP) levels in Chinese hamster ovary (CHO)—K1 cells stably expressing the human Glucose-dependent Insulinotropic Polypeptide Receptor (hGIPR). Following agonist activation, hGIPR associates with the G-protein complex causing the Gαs subunit to exchange bound guanosine diphosphate (GDP) for guanosine triphosphate (GTP), followed by dissociation of the Gαs-GTP complex. The activated Gas subunit can couple to downstream effectors to regulate the levels of second messengers or cAMP within the cell. Thereby, determination of intracellular cAMP levels allows for pharmacological characterization. Intracellular cAMP levels are quantitated using a homogenous assay utilizing the Homogeneous Time Resolved Fluorescence (HTRF) technology from Perkin Elmer. […] The two entities compete for binding to a monoclonal anti-cAMP antibody labeled with cryptate. The specific signal is inversely proportional to the concentration of cAMP in the cells.
Test compounds were solubilized to a concentration of 30 mM in 100% dimethyl sulfoxide (DMSO). An 11-point dilution series using 1 in 3.162-fold serial dilutions was created in 100% DMSO with a top concentration of 8 mM. The serially diluted compound was spotted with an Echo Acoustic liquid handler (Beckman Coulter) into a 384-well assay plate (Corning, Cat No. 3824) at 50 nL/well with duplicate points at each concentration, at a 200× final assay concentration (FAC). The final compound concentration range in the assay was 40 μM to […], with a final DMSO concentration of 0.5%.
Frozen assay-ready vials (at 1×10^7 cells/vial) of CHO-K1 cells stably expressing the Gs-coupled human GIPR receptor (Eurofins, DiscoverX, Cat No. 95-0146C2) were thawed, counted, and resuspended in assay buffer consisting of Hank's Balanced Salt Solution (HBSS, Lonza Cat No. 10-527) containing 20 mM (4-(2-hydroxyethyl)-1-piperazineethanesulfonic acid (HEPES, Lonza, Cat No. 17-737E), 0.1% bovine serum albumin (BSA, Sigma, Cat No. A7979), and 200 μM 3-isobutyl-1-methylxanthine (IBMX, Sigma, Cat No. 15879) at a density of 4×10^5 cells/mL. Cells were added to assay plate (5 μL/well of 4×10^5 cells/mL stock for 2,000 cells/well final) containing 50 nL of 200× FAC test compound, and incubated at 37° C. (95% O2: 5% CO2) for 2 hours, with micro-clime lids (Labcyte, Cat No. LLS-0310). Following the 2-hour cell and compound incubation, a stimulation mix comprised of hGIPR agonist human glucose-dependent insulinotropic polypeptide (hGIP, full length, Sigma Cat No. G2269) in assay buffer/0.1% DMSO was added to the assay plate (5 μL/well) at an estimated EC80 FAC (based on previous hGIP agonist curves) and incubated for another 30 minutes with micro-clime lids at 37° C. (95% O2: 5% CO2), after which intracellular cAMP levels were quantified as per Perkin Elmer's protocol (5 μL of d2 and then 5 μL cryptate, incubated for 1 hour at room temperature). Emission spectra of samples were measured on a Pherastar plate reader (BMG Labtech Inc) using a HTRF protocol (excitation, 320 nm; emission, 665 nm/620 nm).
(95% O2: 5% CO2), with a micro-clime lid. Following the 2-hour cell and DMSO incubation, a hGIP concentration response curve at 2× FAC (12-point curve using 1 in 3 serial dilutions, with triplicate points at each concentration, 100 nM final top concentration) in assay buffer/1% DMSO was added (5 μL/well) and incubated for a further 30 minutes with a micro-clime lid at 37° C. (95% O2: 5% CO2), after which intracellular cAMP levels were quantified and samples measured as described previously. Experiments passed quality control if the agonist concentration used for stimulation fell between the on-the-day EC50-EC90. […]
`CC(C)c1ccc(NC(=O)N2CCC[C@@H]2C(=O)Nc2ccc3cc(C(=O)O)ccc3c2)cc1` (racemic) [Example 41, 6-[(1-{[4-(propan-2-yl)phenyl]carbamoyl}prolyl)amino]naphthalene-2-carboxylic acid]: the IC50 is 0.16 µM.
For the compound `CC(C)c1ccc(NC(=O)N2CCC[C@@H]2C(=O)Nc2ccc(-c3ccc(C(=O)O)cc3)cc2)cc1` (racemic) [Example 44, 4′-[(1-{[4-(propan-2-yl)phenyl]carbamoyl}prolyl)amino][1,1′-biphenyl]-4-carboxylic acid], the IC50 was 0.0068 µM.
Under `CC(C)c1ccc(NC(=O)N2CC[C@H](C)[C@@H]2C(=O)Nc2ccc(-c3ccc(C(=O)O)cc3)cc2)cc1` (single isomer, unassigned) [Example 34, 4′-{[(3S)-3-Methyl-1-{[4-(propan-2-yl)phenyl]carbamoyl}-D-prolyl]amino}[1,1′-biphenyl]-4-carboxylic acid or 4′-{[(3R)-3-Methyl-1-{[4-(propan-2-yl)phenyl]carbamoyl}-L-prolyl]amino}[1,1′-biphenyl]-4-carboxylic acid] stands 0.01 µM; under `CC(C)c1ccc(NC(=O)N2CC[C@@H](C)[C@@H]2C(=O)Nc2ccc(-c3ccc(C(=O)O)cc3)cc2)cc1` (single isomer, unassigned) [Example 35, 4′-{[(3R)-3-Methyl-1-{[4-(propan-2-yl)phenyl]carbamoyl}-D-prolyl]amino}[1,1′-biphenyl]-4-carboxylic acid or 4′-{[(3S)-3-Methyl-1-{[4-(propan-2-yl)phenyl]carbamoyl}-L-prolyl]amino}[1,1′-biphenyl]-4-carboxylic acid], 0.0046 µM.
Under `CC[C@H]1CCN(C(=O)Nc2ccc(C(C)C)cc2)[C@H]1C(=O)Nc1ccc(-c2ccc(C(=O)O)cc2)cc1` (single isomer, unassigned) [Example 165, 4′-{[(3R)-3-ethyl-1-{[4-(propan-2-yl)phenyl]carbamoyl}-L-prolyl]amino}[1,1′-biphenyl]-4-carboxylic acid or 4′-{[(3S)-3-ethyl-1-{[4-(propan-2-yl)phenyl]carbamoyl}-D-prolyl]amino}[1,1′-biphenyl]-4-carboxylic acid] stands 0.0046 µM.
As to `CC[C@@H]1CCN(C(=O)Nc2ccc(C(C)C)cc2)[C@H]1C(=O)Nc1ccc(-c2ccc(C(=O)O)cc2)cc1` (single isomer, unassigned) [Example 166, 4′-{[(3R)-3-ethyl-1-{[4-(propan-2-yl)phenyl]carbamoyl}-D-prolyl]amino}[1,1′-biphenyl]-4-carboxylic acid or 4′-{[(3S)-3-ethyl-1-{[4-(propan-2-yl)phenyl]carbamoyl}-L-prolyl]amino}[1,1′-biphenyl]-4-carboxylic acid], the IC50 is 0.0057 µM.
For the compound `O=C(O)[C@@H]1CCc2nc(NC(=O)[C@H]3CCCN3C(=O)Nc3ccc(C(F)(F)F)cc3)ccc2C1` (single isomer, unassigned) [Example 217, 2-[(1-{[4-(trifluoromethyl)phenyl]carbamoyl}-D-prolyl)amino]-5,6,7,8-tetrahydroquinoline-6-carboxylic acid, DIAST-1], the IC50 was 0.14 µM.
Under `O=C(O)[C@@H]1CCc2nc(NC(=O)[C@H]3CCCN3C(=O)Nc3ccc(C(F)(F)F)cc3)ccc2C1` (single isomer, unassigned) [Example 218, 2-[(1-{[4-(trifluoromethyl)phenyl]carbamoyl}-D-prolyl)amino]-5,6,7,8-tetrahydroquinoline-6-carboxylic acid, DIAST-2] stands 0.033 µM; under `O=C(O)[C@@H]1CCc2nc(NC(=O)[C@H]3CCCN3C(=O)Nc3ccc(C(F)(F)F)c(F)c3)ccc2C1` (single isomer, unassigned) [Example 220, 2-[(1-{[3-fluoro-4-(trifluoromethyl)phenyl]carbamoyl}-D-prolyl)amino]-5,6,7,8-tetrahydroquinoline-6-carboxylic acid, DIAST-1], 0.047 µM; under `O=C(O)[C@@H]1CCc2nc(NC(=O)[C@H]3CCCN3C(=O)Nc3ccc(C(F)(F)F)c(F)c3)ccc2C1` (single isomer, unassigned) [Example 221, 2-[(1-{[3-fluoro-4-(trifluoromethyl)phenyl]carbamoyl}-D-prolyl)amino]-5,6,7,8-tetrahydroquinoline-6-carboxylic acid, DIAST-2], 0.011 µM.
The figure for `Cc1cc(NC(=O)N2CCC[C@@H]2C(=O)Nc2ccc3c(n2)CC[C@@H](C(=O)O)C3)ccc1C(F)(F)F` (single isomer, unassigned) [Example 226, 2-[(1-{[3-methyl-4-(trifluoromethyl)phenyl]carbamoyl}-D-prolyl)amino]-5,6,7,8-tetrahydroquinoline-6-carboxylic acid, DIAST-1] is 0.081 µM; for `Cc1cc(NC(=O)N2CCC[C@@H]2C(=O)Nc2ccc3c(n2)CC[C@@H](C(=O)O)C3)ccc1C(F)(F)F` (single isomer, unassigned) [Example 227, 2-[(1-{[3-methyl-4-(trifluoromethyl)phenyl]carbamoyl}-D-prolyl)amino]-5,6,7,8-tetrahydroquinoline-6-carboxylic acid, DIAST-2] it is 0.053 µM.
The figure for `CC(C)c1ccc(NC(=O)N2CCC[C@@H]2C(=O)Nc2ccc3c(n2)CC[C@@H](C(=O)O)C3)cc1F` (single isomer, unassigned) [Example 228, 2-[(1-{[3-fluoro-4-(propan-2-yl)phenyl]carbamoyl}-D-prolyl)amino]-5,6,7,8-tetrahydroquinoline-6-carboxylic acid, trifluoroacetate salt, DIAST-1] is 0.036 µM; for `CC(C)c1ccc(NC(=O)N2CCC[C@@H]2C(=O)Nc2ccc3c(n2)CC[C@@H](C(=O)O)C3)cc1F` (single isomer, unassigned) [Example 229, 2-[(1-{[3-fluoro-4-(propan-2-yl)phenyl]carbamoyl}-D-prolyl)amino]-5,6,7,8-tetrahydroquinoline-6-carboxylic acid, trifluoroacetate salt, DIAST-2] it is 0.011 µM; for `CC(C)c1ccc(NC(=O)N2CCC[C@@H]2C(=O)Nc2ccc(-c3ccc(C(=O)O)nc3)cc2)cc1` [Example 1, Ammonium 5-{4-[(1-{[4-(propan-2-yl)phenyl]carbamoyl}-D-prolyl)amino]phenyl}pyridine-2-carboxylate] it is 0.016 µM.
As for `CC(C)c1ccc(NC(=O)N2CCC[C@@H]2C(=O)Nc2ccc(-c3ccc(C(=O)O)cn3)cc2)cc1` [Example 2, 6-{4-[(1-{[4-(Propan-2-yl)phenyl]carbamoyl}-D-prolyl)amino]phenyl}pyridine-3-carboxylic acid], the IC50 is 0.074 µM.
As to `CC(C)c1ccc(NC(=O)N2CCC[C@@H]2C(=O)Nc2ccc(-c3cccc(C(=O)O)c3)cc2)cc1` [Example 3, 4′-[(1-{[4-(Propan-2-yl)phenyl]carbamoyl}-D-prolyl)amino][1,1′-biphenyl]-3-carboxylic acid], the IC50 is 0.017 µM.

One may read the IC50 as the concentration needed to halve the response being measured.
